Reference: US20240174618A1, “SUBSTITUTED (2-HETEROARYLOXYPHENYL)SULFONATES, SALTS THEREOF AND THEIR USE AS HERBICIDAL AGENTS” (Bayer Aktiengesellschaft, priority 2021, published 2024)

Legend:
Format in all cases: in vivo
[1] = tested on: Alopecurus myosuroides (ALOMY); experiment: C. Herbicidal pre-emergence efficacy, ALOMY; conditions: scored after about 3 weeks
Outline: (§1)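 Pre-emergence test: formulated compounds sprayed as aqueous suspension or emulsion with 0.5% additive at 600 l/ha onto soil covering sown seeds, at rates corresponding to 320 g/ha or less. After about 3 weeks in greenhouse, efficacy scored visually as percent versus untreated controls (100% = plants dead).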

[2] = tested on: Amaranthus retroflexus (AMARE); experiment: A. Herbicidal pre-emergence efficacy, AMARE
Outline: (§2)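 Applied before emergence onto covering soil at rates of 1280 g/ha or less, using 600 L/ha spray water with 0.5% additive. Scoring: visual % efficacy after ~3 weeks, greenhouse.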

Lolium rigidum (LOLRI) = experiment: A. Herbicidal pre-emergence efficacy, LOLRI
Outline: as §2

[3] = tested on: Abutilon theophrasti (ABUTH); experiment: A. Herbicidal pre-emergence efficacy, ABUTH; conditions: scored visually after about 3 weeks vs untreated controls
Outline: as §2

[4] = tested on: Amaranthus retroflexus (AMARE); experiment: C. Herbicidal pre-emergence efficacy, AMARE; conditions: scored after about 3 weeks
Outline: as §1

Viola tricolor (VIOTR) = experiment: E. Herbicidal post-emergence efficacy, VIOTR
Outline: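 Compounds applied at 320 g/ha or less as a foliar spray (600 l/ha, 0.5% additive) to one-leaf-stage greenhouse plants grown in sandy loam. Damage is visually scored in percent relative to untreated plants after about 3 weeks.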

Setaria viridis (SETVI) = experiment: A. Herbicidal pre-emergence efficacy, SETVI
Outline: as §2

[5] = tested on: Amaranthus retroflexus (AMARE); experiment: B. Herbicidal post-emergence efficacy, AMARE
Outline: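 Weeds grown in sandy loam in greenhouse and sprayed at the one-leaf stage, 2–3 weeks after sowing, with WP or EC formulations plus 0.5% additive at 600 L/ha water. Injury rated visually versus untreated controls after about 3 weeks (100% = dead, 0% = like control); rates up to 1280 g/ha.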

| SMILES | Pre-emergence efficacy against ALOMY ([1]; 80 g/ha) [%] | Pre-emergence efficacy against ALOMY ([1]; 320 g/ha) [%] | Pre-emergence efficacy against AMARE in % ([2]; 80 g/ha) [%] | Pre-emergence efficacy against AMARE in % ([2]; 320 g/ha) [%] | Pre-emergence efficacy against AMARE in % ([2]; 1280 g/ha) [%] | Pre-emergence efficacy against LOLRI (Lolium rigidum (LOLRI); dosage 320 g/ha) [%] | Pre-emergence efficacy against LOLRI (Lolium rigidum (LOLRI); dosage 1280 g/ha) [%] | Pre-emergence efficacy against ABUTH ([3]; 80 g/ha) [%] | Pre-emergence efficacy against ABUTH ([3]; 320 g/ha) [%] | Pre-emergence efficacy against ABUTH ([3]; 1280 g/ha) [%] | Pre-emergence efficacy against AMARE ([4]; 80 g/ha) [%] | Pre-emergence efficacy against AMARE ([4]; 320 g/ha) [%] | Post-emergence efficacy against VIOTR in % (Viola tricolor (VIOTR); application rate 320 g/ha) [%] | Pre-emergence efficacy against SETVI (Setaria viridis (SETVI); dosage 80 g/ha) [%] | Pre-emergence efficacy against SETVI (Setaria viridis (SETVI); dosage 320 g/ha) [%] | Pre-emergence efficacy against SETVI (Setaria viridis (SETVI); dosage 1280 g/ha) [%] | Post-emergence efficacy against AMARE ([5]; 80 g/ha) [%] | Post-emergence efficacy against AMARE ([5]; 320 g/ha) [%] | Post-emergence efficacy against AMARE ([5]; 1280 g/ha) [%] | Post-emergence efficacy against VIOTR in % (Viola tricolor (VIOTR); application rate 80 g/ha) [%] |
| --- | --- | --- | --- | --- | --- | --- | --- | --- | --- | --- | --- | --- | --- | --- | --- | --- | --- | --- | --- | --- |
| O=S(=O)(CCCCl)Oc1ccccc1Oc1ncc(Cl)cn1 [Example I-2] | 90 | 100 | 100 | 100 | 100 | 90 | 100 | 100 | 100 | 100 | 100 | 100 | 100 | 100 | 100 | 100 | 100 | 100 | 100 | – |
| CCCCS(=O)(=O)Oc1ccccc1Oc1ncc(Cl)cn1 [Example I-6] | 80 | 90 | 100 | 100 | 100 | 90 | 90 | 100 | 100 | 100 | 100 | 100 | 90 | 90 | 90 | 100 | 90 | 100 | 100 | 80 |
| CC(C)CS(=O)(=O)Oc1ccccc1Oc1ncc(Cl)cn1 [Example I-7, [2-(5-Chloropyrimidin-2-yl)oxyphenyl] 2-methylpropane-1-sulfonate] | 90 | 100 | 100 | 100 | 100 | – | 90 | – | 90 | 100 | 100 | 100 | 90 | 100 | 100 | 100 | – | 90 | 90 | – |
| O=S(=O)(CCC(F)(F)F)Oc1ccccc1Oc1ncc(Cl)cn1 [Example I-8] | 90 | 100 | 90 | 90 | 100 | 90 | 90 | 90 | 90 | 100 | 100 | 100 | 100 | 100 | 100 | 100 | 90 | 100 | 100 | 80 |
| O=S(=O)(CCl)Oc1ccccc1Oc1ncc(Cl)cn1 [Example I-9] | – | 80 | 100 | 100 | 100 | – | 90 | – | – | 90 | 100 | 100 | 80 | – | 100 | 100 | 90 | 100 | 100 | – |
| O=S(=O)(CCCC(F)(F)F)Oc1ccccc1Oc1ncc(Cl)cn1 [Example I-10] | 100 | 100 | 100 | 100 | 100 | 90 | 90 | 100 | 100 | 100 | 100 | 100 | 100 | 90 | 90 | 100 | 90 | 90 | 100 | 90 |
| O=S(=O)(CCCCl)Oc1c(F)cccc1Oc1ncc(Cl)cn1 [Example I-14] | 90 | 100 | 100 | 100 | 100 | 100 | 100 | 100 | 100 | 100 | 100 | 100 | 90 | 100 | 100 | 100 | 100 | 100 | 100 | 90 |
| O=S(=O)(CCCCCl)Oc1ccccc1Oc1ncc(Cl)cn1 [Example I-15] | – | 90 | 100 | 100 | 100 | – | 90 | 100 | 100 | 100 | 90 | 100 | 100 | 100 | 100 | 100 | 100 | 100 | 100 | 90 |
| O=S(=O)(CC1CC1)Oc1ccccc1Oc1ncc(Cl)cn1 [Example I-23] | 80 | 100 | 90 | 100 | 100 | 90 | 90 | 90 | 90 | 100 | 100 | 100 | 100 | – | – | 100 | 100 | 100 | 100 | 100 |
| O=S(=O)(CCC(F)(F)F)Oc1c(Cl)cccc1Oc1ncc(Br)cn1 [Example I-32] | – | 100 | 90 | 90 | 100 | – | 90 | – | 90 | 100 | 100 | 100 | 100 | – | 90 | 100 | 100 | 100 | 100 | 100 |
